Assay results taken from ChEMBL document CHEMBL1201862, “PubChem BioAssay data set” (2004).
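Tested at 5 concentrations; 48 h exposure; 96-well plates; endpoints linearly interpolated, else capped at highest concentration. Abbreviation: GI50, concentration required for 50% inhibition of growth.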 Activity calls are given as the source filed them. Cut-off read from the data, not from the text of the source: active = GI50 up to about 1.1 µM and inactive = higher.

Legend:
Assay in all cases: DTP human tumour cell line panel, 48 h
786-0 = tested on: 786-0
A549 = tested on: A549
ACHN = tested on: ACHN
CAKI-1 = tested on: CAKI-1
CCRF-CEM = tested on: CCRF-CEM
COLO 205 = tested on: COLO 205
DU-145 = tested on: DU-145
EKVX = tested on: EKVX
HCC 2998 = tested on: HCC 2998
HCT-116 = tested on: HCT-116
HCT-15 = tested on: HCT-15
HL-60 = tested on: HL-60
HOP-62 = tested on: HOP-62
HT-29 = tested on: HT-29
Hs-578T = tested on: Hs-578T
IGROV-1 = tested on: IGROV-1
K562 = tested on: K562
KM12 = tested on: KM12
LOX IMVI = tested on: LOX IMVI
M14 = tested on: M14
MCF7 = tested on: MCF7
MDA-MB-231 = tested on: MDA-MB-231
MDA-MB-435 = tested on: MDA-MB-435
MDA-N = tested on: MDA-N
MOLT-4 = tested on: MOLT-4
Malme-3M = tested on: Malme-3M
NCI-H226 = tested on: NCI-H226
NCI-H23 = tested on: NCI-H23
NCI-H460 = tested on: NCI-H460
NCI-H522 = tested on: NCI-H522
NCI/ADR-RES = tested on: NCI/ADR-RES
OVCAR-3 = tested on: OVCAR-3
OVCAR-5 = tested on: OVCAR-5
OVCAR-8 = tested on: OVCAR-8
PC-3 = tested on: PC-3
RPMI-8226 = tested on: RPMI-8226
RXF 393 = tested on: RXF 393
SF-268 = tested on: SF-268
SF-295 = tested on: SF-295
SF-539 = tested on: SF-539
SK-MEL-28 = tested on: SK-MEL-28
SK-MEL-5 = tested on: SK-MEL-5
SN12C = tested on: SN12C
SNB-19 = tested on: SNB-19
SNB-75 = tested on: SNB-75
SR = tested on: SR
SW-620 = tested on: SW-620
T47D = tested on: T47D
TK-10 = tested on: TK-10
U-251 = tested on: U-251
UACC-257 = tested on: UACC-257
UACC-62 = tested on: UACC-62
UO-31 = tested on: UO-31
A498 = tested on: A498
OVCAR-4 = tested on: OVCAR-4
SK-OV-3 = tested on: SK-OV-3

Question: What does the source list for `COc1cc2c(c(OC)c1OC)C(=O)[C@@H]1[C@H]2N1C(N)=O`?
Answer: GI50 (786-0): > 100 µM (inactive); GI50 (A549): > 100 µM (inactive); GI50 (ACHN): 61.1 µM (inactive); GI50 (CAKI-1): > 100 µM (inactive); GI50 (CCRF-CEM): > 100 µM (inactive); GI50 (COLO 205): 91.2 µM (inactive); GI50 (DU-145): 61.4 µM (inactive); GI50 (EKVX): > 100 µM (inactive); GI50 (HCC 2998): 68.4 µM (inactive); GI50 (HCT-116): > 100 µM (inactive); GI50 (HCT-15): > 100 µM; GI50 (HL-60): > 100 µM (inactive); GI50 (HOP-62): > 100 µM (inactive); GI50 (HT-29): > 100 µM (inactive); GI50 (Hs-578T): 96.2 µM (inactive); GI50 (IGROV-1): 94.8 µM (inactive); GI50 (K562): > 100 µM (inactive); GI50 (KM12): > 100 µM (inactive); GI50 (LOX IMVI): > 100 µM (inactive); GI50 (M14): > 100 µM (inactive); GI50 (MCF7): > 100 µM (inactive); GI50 (MDA-MB-231): > 100 µM (inactive); GI50 (MDA-MB-435): > 100 µM (inactive); GI50 (MDA-N): 88.5 µM (inactive); GI50 (MOLT-4): > 100 µM (inactive); GI50 (Malme-3M): > 100 µM (inactive); GI50 (NCI-H226): > 100 µM (inactive); GI50 (NCI-H23): 69.2 µM (inactive); GI50 (NCI-H460): 98.2 µM (inactive); GI50 (NCI-H522): > 100 µM (inactive); GI50 (NCI/ADR-RES): > 100 µM (inactive); GI50 (OVCAR-3): > 100 µM (inactive); GI50 (OVCAR-5): 87.3 µM (inactive); GI50 (OVCAR-8): > 100 µM (inactive); GI50 (PC-3): > 100 µM (inactive); GI50 (RPMI-8226): > 100 µM (inactive); GI50 (RXF 393): 79.8 µM (inactive); GI50 (SF-268): > 100 µM (inactive); GI50 (SF-295): > 100 µM (inactive); GI50 (SF-539): > 100 µM (inactive); GI50 (SK-MEL-28): > 100 µM (inactive); GI50 (SK-MEL-5): 77.4 µM (inactive); GI50 (SN12C): > 100 µM (inactive); GI50 (SNB-19): > 100 µM (inactive); GI50 (SNB-75): 66.2 µM (inactive); GI50 (SR): > 100 µM (inactive); GI50 (SW-620): > 100 µM (inactive); GI50 (T47D): > 100 µM (inactive); GI50 (TK-10): > 100 µM (inactive); GI50 (U-251): 47 µM (inactive); GI50 (UACC-257): > 100 µM (inactive); GI50 (UACC-62): 22.1 µM (inactive); GI50 (UO-31): > 100 µM (inactive)

Question: For `Cc1nc(O)c2ncn(CCO)c2n1`, which GI50 (786-0) is on record?
Answer: > 100 µM (inactive)

Question: And the GI50 (A498)?
Answer: > 100 µM (inactive)

Question: And the GI50 (A549)?
Answer: > 100 µM (inactive)

Question: What about the GI50 (ACHN) of the same compound?
Answer: > 100 µM (inactive)

Question: And the GI50 (CAKI-1)?
Answer: > 100 µM (inactive)

Question: What about the GI50 (CCRF-CEM) of the same compound?
Answer: > 100 µM (inactive)

Question: And the GI50 (COLO 205)?
Answer: > 100 µM (inactive)

Question: And the GI50 (DU-145)?
Answer: > 100 µM (inactive)

Question: What about the GI50 (EKVX) of the same compound?
Answer: > 100 µM (inactive)

Question: What about the GI50 (HCC 2998) of the same compound?
Answer: > 100 µM (inactive)

Question: And the GI50 (HCT-116)?
Answer: > 100 µM (inactive)

Question: And the GI50 (HCT-15)?
Answer: > 100 µM

Question: And the GI50 (HL-60)?
Answer: > 100 µM (inactive)

Question: What about the GI50 (HOP-62) of the same compound?
Answer: > 100 µM (inactive)

Question: What about the GI50 (HT-29) of the same compound?
Answer: > 100 µM (inactive)

Question: What about the GI50 (Hs-578T) of the same compound?
Answer: > 100 µM (inactive)

Question: What about the GI50 (IGROV-1) of the same compound?
Answer: > 100 µM (inactive)

Question: And the GI50 (K562)?
Answer: > 100 µM (inactive)

Question: What about the GI50 (KM12) of the same compound?
Answer: > 100 µM (inactive)

Question: And the GI50 (LOX IMVI)?
Answer: > 100 µM (inactive)

Question: And the GI50 (M14)?
Answer: > 100 µM (inactive)

Question: And the GI50 (MCF7)?
Answer: > 100 µM (inactive)

Question: And the GI50 (MDA-MB-231)?
Answer: > 100 µM (inactive)

Question: And the GI50 (MDA-MB-435)?
Answer: > 100 µM (inactive)

Question: What about the GI50 (MDA-N) of the same compound?
Answer: > 100 µM (inactive)

Question: What about the GI50 (Malme-3M) of the same compound?
Answer: > 100 µM (inactive)

Question: And the GI50 (NCI-H226)?
Answer: > 100 µM (inactive)

Question: What about the GI50 (NCI-H23) of the same compound?
Answer: > 100 µM (inactive)

Question: And the GI50 (NCI-H460)?
Answer: > 100 µM (inactive)

Question: And the GI50 (NCI-H522)?
Answer: > 100 µM (inactive)

Question: And the GI50 (NCI/ADR-RES)?
Answer: > 100 µM (inactive)

Question: And the GI50 (OVCAR-3)?
Answer: > 100 µM (inactive)

Question: And the GI50 (OVCAR-4)?
Answer: > 100 µM (inactive)

Question: What about the GI50 (OVCAR-5) of the same compound?
Answer: > 100 µM (inactive)

Question: What about the GI50 (OVCAR-8) of the same compound?
Answer: > 100 µM (inactive)

Question: What about the GI50 (PC-3) of the same compound?
Answer: > 100 µM (inactive)

Question: What about the GI50 (RXF 393) of the same compound?
Answer: > 100 µM (inactive)

Question: What about the GI50 (SF-268) of the same compound?
Answer: > 100 µM (inactive)

Question: And the GI50 (SF-295)?
Answer: > 100 µM (inactive)

Question: What about the GI50 (SF-539) of the same compound?
Answer: > 100 µM (inactive)

Question: And the GI50 (SK-MEL-28)?
Answer: > 100 µM (inactive)

Question: What about the GI50 (SK-MEL-5) of the same compound?
Answer: > 100 µM (inactive)

Question: What about the GI50 (SK-OV-3) of the same compound?
Answer: > 100 µM (inactive)

Question: What about the GI50 (SN12C) of the same compound?
Answer: > 100 µM (inactive)

Question: What about the GI50 (SNB-19) of the same compound?
Answer: > 100 µM (inactive)

Question: What about the GI50 (SNB-75) of the same compound?
Answer: > 100 µM (inactive)

Question: What about the GI50 (SR) of the same compound?
Answer: > 100 µM (inactive)

Question: What about the GI50 (SW-620) of the same compound?
Answer: > 100 µM (inactive)

Question: And the GI50 (T47D)?
Answer: > 100 µM (inactive)

Question: And the GI50 (TK-10)?
Answer: > 100 µM (inactive)

Question: What about the GI50 (U-251) of the same compound?
Answer: > 100 µM (inactive)

Question: What about the GI50 (UACC-257) of the same compound?
Answer: > 100 µM (inactive)

Question: And the GI50 (UACC-62)?
Answer: > 100 µM (inactive)
